Where “and” joins values, the source holds several entries; their conditions need not be identical. Equal entries are not always repeated.
Key:
MCF-7 cells = assay: mammosphere formation assay; assay type: cell-based, human; details: MCF-7, 5 μM; for MFE (%) ave / MFE (control = 1) ave / MFE (%): 7 days; for MFE (%) ave: mean of 3, control 0.87; for MFE (control = 1) ave: relative to control = 1; for MFE (%): single replicates
Method: (§1) We also evaluated antiproliferative activity against cancer stem cells (CSCs), which are a small sub-population in tumour bulk identified in most cancer cells and clinical samples[52]. CSCs have been a major problem in cancer therapy because they are responsible for recurrence, metastasis and drug resistance to chemotherapeutic agents that affect proliferative cells[53]–[56]. Anti-CSC activity was evaluated by the inhibition of sphere-forming ability, a well-studied method to enrich the CSC-like population, and selective cytotoxicity against one of the most reliable CSC markers, aldehyde dehydrogenase (ALDH)-positive cells. […] Low-toxicity 16 was also added as a negative control. […] We next evaluated the three DDPs that inhibited mammosphere formations against ALDH-positive cells, a functional marker for breast CSCs. MCF-7 cells were treated with 1 μM of 11, 12 or 22, and the ALDH-positive cell population was analysed by using a fluorescence activated cell sorter (Supplementary Fig. 46b). […] Thus, for the first time, we successfully found DDPs with potent antiproliferative effects on the CSC-like population in MCF-7 cells, which may lead to new anti-CSC drugs.
(§2) Fig. 5 DDPs show anti-CSC activity in breast cancer cell line MCF-7. a Effect of DDPs on mammosphere formation. After the cells were cultured in the presence of 5 μM DDPs for 7 days, the number of mammospheres was microscopically counted and the percentage of mammosphere-forming cells was determined as mammosphere-forming efficiency (MFE; %). Data represent mean ± s.d. from three independent replicate experiments. P-values were calculated by a two-sided unpaired Student’s t-test, compared with control. b Micrographs show representative images of mammosphere formation from three independent replicate experiments using compound 11, 12, 16, 22. The scale bar, […]. c Effect of DDPs (1 μM, 3 days) on ALDH-positive cells in MCF-7 cells. Data represent mean ± s.d. from three independent replicate experiments. P-values were calculated by a two-sided unpaired Student’s t-test, compared with control. d Dose-dependent effect of compound 12 on ALDH-positive cells in MCF-7 cells. Data represent mean ± s.d. from three independent replicate experiments. P-values were calculated by a two-sided unpaired Student’s t-test. Source data underlying Fig. 5a, c, d are provided in a Source Data file.

LOX-IMVI = assay: cells; set-up: JFCR39 human cancer cell line panel, antiproliferative dose response (optical density), GI50; details: Homo sapiens, LOX IMVI
Method: (§3) Initially, we evaluated new DDP analogues for their antiproliferative activities across the panel of 39 human cancer cell lines, JFCR39[50],[51]. […] Purified DDPs was dissolved in DMSO (Specially Prepared Reagent, Nuclease and Protease tested, NACALAI, 09659-14) to prepare 5 mM solutions. The Each DDP solution (5 mM) was used for antiproliferative effects on cancer cell lines (Supplementary Notes 23, 24, 25, 26), biological activity against Drosophila (Supplementary Note 27), anti-HIV assay (Supplementary Note 28) and screening of amyloid Ab42 aggregation inhibitors (Supplementary Notes 29).

MCF-7 = assay: cells; set-up: JFCR39 human cancer cell line panel, antiproliferative dose response (optical density), GI50; details: Homo sapiens, MCF7
Method: as §3

MKN-A = assay: cells; set-up: JFCR39 human cancer cell line panel, antiproliferative dose response (optical density), GI50
Method: as §3

SF-539 = assay: cells; set-up: JFCR39 human cancer cell line panel, antiproliferative dose response (optical density), GI50; details: Homo sapiens, SF-539
Method: as §3

Aβ42 = Aβ42 (Homo sapiens, UniProt P05067); assay: LC/Q Tof-MS detection of Aβ42 adducts; assay type: binding; details: 1 h incubation at room temperature
Aβ42, sequence (P05067 672-713): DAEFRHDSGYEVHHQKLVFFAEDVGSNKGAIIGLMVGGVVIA
Method: To further analyse the inhibitory mechanism, we subjected a mixture of Aβ42 and 21 after 1 h of incubation at room temperature to liquid chromatography/quadrupole time-of-flight mass spectrometry (LC/Q Tof-MS). […] To identify the specific amino acids involved in the interaction of 21 with the Aβ monomer, we performed LC–MS/MS analysis with collision-induced dissociation (CID) using E22P, M35ox-Aβ9-35 as a toxic conformer surrogate[66],[67]. Based on a large number of fragmented b ions and y ions, Lys16 in Aβ42 ([…]) seemed to be one of the target amino acid residues of 21 (Supplementary Fig. 50).
Device; UPLC H-class with Xevo G2-S Qtof (Waters) 3.44e7 […]
in 50% CH3CN containing 0.01%NH4OH, incubated for 1 h at 23 °C […]
Capillary voltage; 3.0 kv 16.07
WT-A!42+ compound 21 1: TOF MS ES+
ْMeasurement conditionٓ 2.25e7
Device; UPLC H-class with Xevo G2-S Qtof (Waters)
Capillary voltage; 3.0 kv
WT-A!42 + compound 21 Mass spectrum […]
Supplementary Fig. 48. Comparison of LC-MS data, a, compound 20 was incubated with wt-Aβ42 and analyzed by LC-MS, whereas no peak originated from their adducts was observed. b, compound 21 was incubated with Aβ42 and analyzed by LC-MS, and their Michael adducts were observed around 9 min. c, ESI mass spectra of the Michael adducts between Aβ42 and compound 21. d, Deconvolution Mass spectrum of a Michael adduct observed at 8.944 min. […]

[1] = tested on: ALDH-positive cells in MCF-7 cells; assay: ALDH-positive cell population (ALDEFLUOR, flow cytometry); assay type: cell-based, human; details: MCF-7, 1 μM
Method: as §1, §2
!" ' ' '! !" ' ' '! !" ' ' '!!" ' ' '!!" ' ' '!!" ' ' '!!" ' ' '!!" ' ' '! !" ' ' '! !" ' ' '! !" ' ' '! !"#$ ( % ) * '! '' '# '+ '$ '( '% […]
Main population Single cells Single cells
(negative control) Without DEAB […]
P-values are calculated using a two-sided unpaired Student’s t-test; * p < 0.05, ** p < 0.01, compared with control. b, Gating strategy of flow cytometry analysis for detecting ALDH-positive cells. All samples were analyzed by sequential gating including main population (G1), single cells (G2, G3). Negative control with DEAB was used to establish G4 (ALDH-negative cells) and G5 (ALDH-positive cells). […]
Policy information about cell lines […]
were distributed from National Cancer Institute (Frederick, MD). HT-29, MCF-7, DU-145 and PC-3 were purchased from […]

GI50 (MCF-7) [nM]	GI50 (MKN-A) [nM]	Compound	MFE (%) ave (MCF-7 cells) [%]	MFE (control = 1) ave (MCF-7 cells)	MFE (%) (MCF-7 cells)	GI50 (LOX-IMVI) [nM]	GI50 (SF-539) [nM]	Aβ42 adduct formation (Aβ42)	effect on sphere formation (MCF-7 cells)	population of ALDH-positive cells [1]	ALDH-positive cells ave (fold) ([1]; 3 days, control = 1)	ALDH-positive cells ave ([1]; 3 days, mean of 3, control 1.4) [%]	ALDH-positive cells (%) ([1]; 3 days, single replicates)
1010	318	C=C1CCC2C3(C)CC(C=C(C)C)OC3CCC2(C)C1Cc1c(OC)oc(C)c(C)c1=O (centres unmarked) [Compound 23]	0.66	0.76	0.60% and 0.72% and 0.66%	604	5570						
		C=C1CC[C@@H]2[C@](C)(CC[C@H]3O[C@H](C=C(C)C)C[C@@]23C)[C@@H]1Cc1c(OC)oc(CO)c(C)c1=O [Compound 20]	0.77	0.89	0.76% and 0.80%			no such adduct was found					
		C=C1CC[C@@H]2[C@](C)(CC[C@H]3O[C@H](C=C(C)C)C[C@@]23C)[C@@H]1Cc1c(OC)oc(C)c(C)c1=O [Compound 22, O-methylated higginsianin A]	0.41	0.47	0.40% and 0.42%				clearly inhibited sphere formation	reduced the population of ALDH-positive cells	0.38	0.53	0.4% and 0.5% and 0.7%
		C=C1CC[C@H]2[C@]3(C)C[C@H](C=C(C)C)O[C@H]3CC[C@]2(C)[C@@H]1Cc1c(OC)oc(CO)c(C)c1=O [Compound 18]	0.64	0.74	0.66% and 0.58% and 0.68%								
1530	573	C=C1CC[C@H]2[C@]3(C)C[C@H](C=C(C)C)O[C@H]3CC[C@]2(C)[C@@H]1Cc1c(OC)oc(C)c(C)c1=O [Compound 24]				929	7260						

— paper PMC7156458, “Synthetic biology based construction of biological activity-related library of fungal decalin-containing diterpenoid pyrones” (Nature Communications, 2020)
